From patent US9976165B2, “Methods for increasing molecular diversity of polyketides and non-ribosomal proteins” (Isomerase Therapeutics Limited, priority 2013, dated 2018) come the findings set out here.

Experiment [1] is described as follows: Murine PLP T cell proliferation assay (PLP assay). The experiment is classed as cell-based. To be noted: Mus musculus, off-target (mTOR-driven) immunosuppressive potency.
Method: Activity of mTOR inhibitors was measured in two different antigen-specific murine T cell proliferation assays (as described in Young et al., 2000). […] In a second type of assay, lymph nodes obtained from PLP TCR transgenic mice are simulated with PLP peptide in culture in a primary stimulation assay.
In experiment [2] the target is FKBP12 (Homo sapiens, UniProt P62942). The experiment can be described thus: FKBP12 PPIase assay (inhibition of peptidyl-prolyl isomerase activity). The experiment is classed as biochemical. To be noted: 6 concentrations in duplicate, data fitted to a Ki curve.
Sequence of FKBP12 (P62942 whole entry, species assumed): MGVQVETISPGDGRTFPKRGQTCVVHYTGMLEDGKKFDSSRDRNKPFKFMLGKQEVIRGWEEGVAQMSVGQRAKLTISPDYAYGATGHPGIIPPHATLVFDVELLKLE
Method: The first order rate equation was fitted to the absorbance data to obtain a rate constant. A catalytic rate (Kenz) was calculated from the enzymatic rate minus the background rate. Kenz v inhibitor concentration was plotted to obtain the Ki value. […] All compounds were assayed at 6 concentrations in duplicate and the data fitted to a Ki curve to afford a Ki value with standard error (SE).

Usually IC50 stands for the concentration that gives 50% inhibition. A low value points to greater potency. In experiment [1], `CO[C@H]1C[C@@H]2CC[C@@H](C)[C@@](O)(O2)C(=O)C(=O)N2CCCC[C@H]2C(=O)OC([C@H](C)C[C@H]2CC[C@H](O)CC2)C[C@@H](O)CC(=O)[C@H](C)CC[C@H](C)/C=C/C=C/C=C/1C` (stereo partly drawn) [Compound 4] registered an IC50 of 4.46 µM. As a reminder, the Ki is a dissociation constant, usually derived from enzyme kinetics or from competition with a known ligand. Higher therefore signals lower affinity. In experiment [2], `CO[C@H]1C[C@@H]2CC[C@@H](C)[C@](O)(CC(=O)N3CCCC[C@H]3C(=O)OC([C@H](C)C[C@@H]3CC[C@@H](O)[C@H](O)C3)C/C=C(\C)[C@@H](O)CC(=O)[C@H](C)CC[C@H](C)/C=C/C=C/C=C/1C)O2` (stereo partly drawn) [Compound 9] registered a Ki of 0.18 µM. The same measure, in the same setting: next, `CO[C@H]1C[C@@H]2CC[C@@H](C)[C@@](O)(O2)C(=O)C(=O)N2CCCC[C@H]2C(=O)O[C@H](/C(C)=C/C[C@H](O)[C@H](C)C[C@H]2CC[C@H](O)CC2)CC(=O)[C@H](C)C[C@H](C)/C=C/C=C/C=C/1C` [Compound 21]: 0.095 µM.
